Measurements as given in patent publication US20250115597A1, “TYK2 INHIBITORS AND COMPOSITIONS AND METHODS THEREOF” (LYNK PHARMACEUTICALS CO. LTD., priority 2021, published 2025).
Where two headings read alike, the source gives them in different places.

Assays:
JAK1 = target: T1, JAK1 (Homo sapiens, UniProt P23458); assay: JAK1 kinase activity, microfluidic assay (Caliper EZ Reader II); assay type: biochemical; settings: JAK1 5 nM, 1 mM ATP
T1 construct: purchased Carna Biosciences
Method in brief: (§1)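 Human JAK1, JAK2 or TYK2 enzyme was used in 50 mM HEPES, 10 mM MgCl2, 2 mM DTT and 0.01% Brij35, tuned to 10% conversion of a FAM-labelled peptide. Threefold dilutions of compound (top 5 µM, 1% DMSO) were pre-incubated with enzyme for 10 min, and reactions were stopped with EDTA. Phosphorylation was read by microfluidic mobility shift, and IC50 came from percent-inhibition curves.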

JAK2 = target: T2, JAK2 (Homo sapiens, UniProt O60674); assay: JAK2 kinase activity, microfluidic assay (Caliper EZ Reader II); assay type: biochemical; settings: JAK2 0.125 nM, 1 mM ATP
T2 construct: purchased Carna Biosciences
T2 sequence (O60674 whole entry): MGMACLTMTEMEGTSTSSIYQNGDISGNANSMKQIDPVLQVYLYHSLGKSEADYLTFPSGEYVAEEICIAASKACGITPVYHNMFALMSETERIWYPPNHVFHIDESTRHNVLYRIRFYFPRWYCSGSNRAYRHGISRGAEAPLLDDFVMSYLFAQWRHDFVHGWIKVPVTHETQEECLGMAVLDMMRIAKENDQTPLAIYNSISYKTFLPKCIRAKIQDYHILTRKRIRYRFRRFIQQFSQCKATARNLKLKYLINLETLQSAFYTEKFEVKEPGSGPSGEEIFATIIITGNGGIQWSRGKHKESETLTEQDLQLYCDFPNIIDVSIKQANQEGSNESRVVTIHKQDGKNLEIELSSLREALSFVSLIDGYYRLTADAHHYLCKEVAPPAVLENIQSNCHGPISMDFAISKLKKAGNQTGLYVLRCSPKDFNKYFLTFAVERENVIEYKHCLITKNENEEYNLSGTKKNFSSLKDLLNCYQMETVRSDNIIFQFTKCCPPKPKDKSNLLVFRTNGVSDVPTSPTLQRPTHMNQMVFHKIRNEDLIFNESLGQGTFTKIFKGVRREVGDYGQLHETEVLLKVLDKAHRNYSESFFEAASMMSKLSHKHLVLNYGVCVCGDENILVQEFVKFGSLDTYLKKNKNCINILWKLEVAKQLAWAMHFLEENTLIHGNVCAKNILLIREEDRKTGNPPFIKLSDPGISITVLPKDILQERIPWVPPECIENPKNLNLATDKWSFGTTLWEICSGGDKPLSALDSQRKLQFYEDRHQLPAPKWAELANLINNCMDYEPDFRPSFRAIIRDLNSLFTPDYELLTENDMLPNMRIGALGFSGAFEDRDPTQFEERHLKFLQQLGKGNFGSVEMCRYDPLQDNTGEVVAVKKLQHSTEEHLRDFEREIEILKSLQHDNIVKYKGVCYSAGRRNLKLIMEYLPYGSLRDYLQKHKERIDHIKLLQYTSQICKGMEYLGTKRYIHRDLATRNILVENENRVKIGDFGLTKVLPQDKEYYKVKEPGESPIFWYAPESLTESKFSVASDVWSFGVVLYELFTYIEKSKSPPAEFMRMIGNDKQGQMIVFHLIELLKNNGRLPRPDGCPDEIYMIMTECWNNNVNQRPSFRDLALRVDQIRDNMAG
Method in brief: as §1

TYK2 = target: T3, TYK2 (Homo sapiens, UniProt P29597); assay: TYK2 kinase activity, microfluidic assay (Caliper EZ Reader II); assay type: biochemical; settings: TYK2 1 nM, 1 mM ATP
T3 construct: purchased Carna Biosciences
T3 sequence (P29597 whole entry): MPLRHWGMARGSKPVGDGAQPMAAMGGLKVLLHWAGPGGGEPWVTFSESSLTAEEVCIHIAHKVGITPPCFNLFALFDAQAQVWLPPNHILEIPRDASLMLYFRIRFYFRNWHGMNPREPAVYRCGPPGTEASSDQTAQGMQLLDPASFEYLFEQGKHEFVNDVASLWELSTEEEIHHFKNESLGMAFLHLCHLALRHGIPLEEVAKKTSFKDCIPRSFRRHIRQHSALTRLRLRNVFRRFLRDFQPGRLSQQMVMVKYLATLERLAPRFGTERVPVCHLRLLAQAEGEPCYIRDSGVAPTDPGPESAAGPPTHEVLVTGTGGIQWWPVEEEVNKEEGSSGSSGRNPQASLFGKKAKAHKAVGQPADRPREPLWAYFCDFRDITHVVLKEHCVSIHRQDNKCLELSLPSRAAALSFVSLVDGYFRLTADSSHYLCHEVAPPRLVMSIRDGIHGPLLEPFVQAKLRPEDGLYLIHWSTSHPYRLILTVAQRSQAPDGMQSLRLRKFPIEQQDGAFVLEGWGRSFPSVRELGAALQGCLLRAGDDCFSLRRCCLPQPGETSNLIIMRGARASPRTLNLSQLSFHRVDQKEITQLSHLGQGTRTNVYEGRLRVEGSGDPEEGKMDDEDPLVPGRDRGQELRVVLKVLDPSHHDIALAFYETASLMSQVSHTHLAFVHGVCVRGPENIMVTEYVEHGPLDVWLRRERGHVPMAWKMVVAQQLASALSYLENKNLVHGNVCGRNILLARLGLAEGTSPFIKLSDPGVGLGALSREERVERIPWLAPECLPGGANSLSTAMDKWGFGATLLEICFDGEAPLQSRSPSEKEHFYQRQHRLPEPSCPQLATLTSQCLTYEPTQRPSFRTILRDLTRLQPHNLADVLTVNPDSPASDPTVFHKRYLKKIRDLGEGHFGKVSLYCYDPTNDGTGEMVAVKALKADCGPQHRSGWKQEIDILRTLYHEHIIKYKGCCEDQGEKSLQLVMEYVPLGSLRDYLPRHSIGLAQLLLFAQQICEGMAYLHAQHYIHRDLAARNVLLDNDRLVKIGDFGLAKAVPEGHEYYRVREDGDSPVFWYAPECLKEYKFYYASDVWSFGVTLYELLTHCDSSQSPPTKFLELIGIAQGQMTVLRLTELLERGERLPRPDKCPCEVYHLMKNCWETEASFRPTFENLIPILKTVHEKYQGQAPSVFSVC
Method in brief: as §1

[1] = target: T4, Ba/F3-FL-TYK2-P760L cells (Homo sapiens, UniProt P29597, P760L, cells depend on it); assay: Anti-proliferative assay, Ba/F3-FL-TYK2-P760L cells (Cell-Titer Glo); assay type: cell-based; settings: 72 h, read-out: BaF3-FL-T2P760L IC50
T4 construct: BaF3-FL-T2P760L (nM)
T4 sequence (P29597 whole entry P760L): as the sequence (P29597 whole entry) above, with P760L counted along it
Method in brief: (§2)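 Ba/F3 cells made IL-3-independent by TEL-fused or full-length mutant JAK-family kinases, seeded at 2000/well and dosed after 24 h with 9 three-fold dilutions topping at 20 μM. Viability after 72 h at 37 °C, 5% CO2 by Cell-Titer Glo ATP luminescence.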

Ba/F3-TEL-TYK2 cells = target: T5, Ba/F3-TEL-TYK2 cells (Homo sapiens, UniProt P29597); assay: Anti-proliferative assay, Ba/F3-TEL-TYK2 cells (Cell-Titer Glo); assay type: cell-based; settings: 72 h, read-out: BaF3-TEL-TYK2 IC50
T5 construct: fused on or other part: Dimerization domain of TEL (ETV6) fused to the TYK2 kinase domain; P41212 (Transcription factor ETV6)
T5 sequence (P29597 whole entry, change not shown, the tested form may be a part): as the sequence (P29597 whole entry) above
Method in brief: as §2

Ba/F3-TEL-JAK2 cells = target: T6, Ba/F3-TEL-JAK2 cells (Homo sapiens, UniProt O60674); assay: Anti-proliferative assay, Ba/F3-TEL-JAK2 cells (Cell-Titer Glo); assay type: cell-based; settings: 72 h, read-out: BaF3-TEL-JAK2 IC50
T6 construct: fused on or other part: Dimerization domain of TEL (ETV6) fused to the JAK2 kinase domain; P41212 (Transcription factor ETV6)
T6 sequence (O60674 whole entry, change not shown, the tested form may be a part): as the sequence (O60674 whole entry) above
Procedure: Anti-Proliferative Assay Dimerization domain of Tel protein fused with JAK kinase domain was permanently transduced into Ba/F3 cells, whose proliferation is dependent on JAK activity in the absence of IL-3 induction. These engineered Ba/F3 cells (Ba/F3-FL-TYK2-[…], Ba/F3-TEL-TYK2 and Ba/F3-TEL-JAK2) were used to monitor JAK inhibitory activities of the compounds in the cellular. […] Cells were seeded at 2000/well of white flat bottom 96-well plates. The well containing medium only was used as background control. After 24 h growth, cells were treated with compounds. The test compounds were dissolved in DMSO to a stock concentration of 20 mM. 3-fold serially diluted compounds for 9 concentrations with top concentration of 20 μM was added into the each well. […] The cells continued to grow at 37° C. in 5% CO2 for 72 h after compound treatment. The viability was measured by cellular ATP determination using the Cell-Titer Glo luciferase reagent (Promega). The Luminescence value was recorded by a multi-label reader Envision (PerkinElmer).

[2] = Microsomal metabolic stability assay; assay type: in vitro ADME; settings: pH 7.4, 0.5 mg/mL protein, 1 μM compound
Method in brief: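 Test article at 1 μM with 0.5 mg/mL microsomal protein and 2 mM NADPH, in 100 mM potassium phosphate pH 7.4 with 1.0 mM EDTA at 37 °C. Sampled at 0–45 min and quantified by LC/MS/MS. T1/2 from the slope of ln % remaining vs time.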

TYK2-JH2 domain = target: T7, TYK2-JH2 domain (Homo sapiens, UniProt P29597); assay: Binding activity test for JH2 domain of TYK2 (Tb-antibody/tracer FRET)
T7 construct: IC50 on JH2 domain activity (nM)
T7 sequence (P29597 589-875 limits assumed): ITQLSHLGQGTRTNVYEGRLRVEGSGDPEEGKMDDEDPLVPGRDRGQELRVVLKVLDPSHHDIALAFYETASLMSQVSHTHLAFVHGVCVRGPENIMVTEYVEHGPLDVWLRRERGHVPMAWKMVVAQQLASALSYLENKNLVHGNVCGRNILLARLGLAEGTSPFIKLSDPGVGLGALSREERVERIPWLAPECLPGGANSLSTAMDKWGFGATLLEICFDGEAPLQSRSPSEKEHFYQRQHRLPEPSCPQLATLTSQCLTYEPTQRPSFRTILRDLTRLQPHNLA
Method in brief: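 Compounds tested as 11-point 3-fold serial dilutions against the JH2 domain in a Tb-antibody/tracer FRET binding format. Plates incubated 60 min at 25° C, then overnight at 4° C, before FRET reading.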

[3] = Plasma protein binding by equilibrium dialysis; assay type: in vitro ADME; settings: human plasma, equilibrium dialysis 5 hours at 37° C.; read-out: % Bound (human) (converted)
Method in brief: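 Compound spiked into plasma at 0.2 and 2 μM was dialyzed against PBS for 5 h at 37° C with shaking, in duplicate. Plasma and buffer chambers were matrix-matched, protein-precipitated and analysed by LC-MS/MS to derive % unbound, % bound and % recovery.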

pSTAT1 [4] = assay: Phosphorylation inhibition of STAT in human whole blood, IFN-alpha stimulated (flow cytometry); assay type: cell-based; settings: 20 min; human whole blood, IFN-alpha 20 mins, CD3 cells; read-out: IC50 on pSTAT1 inhibition in h WB
Method in brief: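 Freshly prepared PBMC or freshly collected whole blood stimulated with human Universal Type I IFN-alpha for 20 min, then fixed, permeabilized on ice and stained for CD3 and pSTAT1 (Y701). pSTAT1 read by flow cytometry; IC50 from 4-parameter logistic fit.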

pSTAT1 [5] = assay: Phosphorylation inhibition of STAT in human PBMC, IFN-alpha stimulated (flow cytometry); assay type: cell-based; settings: 20 min; human PBMC, IFN-alpha 20 mins, CD3 cells; read-out: IC50 on pSTAT1 inhibition in hPBMC
Procedure: Phosphorylation Inhibition of STAT in Human PBMC and Human Whole Blood Testing:
The inhibitory potential of test articles in human PBMC and human whole blood assay was evaluated by the method of flow cytometry.
IFN-alpha will activate JAK1 and TYK2 kinase in T cells by binding to IFN receptors, and then lead to phosphorylation of STAT1 and STAT2. The phosphorylated STAT1 enter nuclear and promote transcription and expression of IFN-gamma. To evaluate the efficacy of TYK2i in T cells, freshly prepared human PBMC or freshly collected human whole blood will be stimulated with certain unit of human IFN-alpha (Universal Type I IFN(1MU), R&D, 11200-2) for 20 mins in incubator. After stimulation, fix cells with Phosflow™ Fix Buffer I (BD, 557870), and then collect fixed cells by centrifugation (500 g, 8 min). Wash cells once with pre-cooled PBS, and then permeabilize cells with cold Perm Buffer III buffer (BD, 558050) for 45 mins on ice. Collect cells by centrifugation (600 g, 8 min) and washed twice with cold PBS. Stain cells with anti-human CD3 (FITC Mouse Anti-Human CD3, BD, 555332) and anti-pSTAT1_Y701(Alexa Fluor 647 Mouse Anti-Stat1 (pY701), BD, 612597) antibodies. Detect pSTAT1 by flow cytometry (CytoFlex S) and analyze data with FlowJo and GraphPad Prism 8 software. IC50 values of test articles were determined using 4-parameter logistic equation.

[6] = dog liver microsomes, read-out: Dog LM Clint
[7] = dog liver microsomes, read-out: Dog LM T½
[8] = human liver microsomes, read-out: Human LM Clint
[9] = human liver microsomes, read-out: Human LM T½
[10] = rat liver microsomes, read-out: Rat LM Clint
[11] = rat liver microsomes, read-out: Rat LM T½

T1 sequence (P23458 whole entry): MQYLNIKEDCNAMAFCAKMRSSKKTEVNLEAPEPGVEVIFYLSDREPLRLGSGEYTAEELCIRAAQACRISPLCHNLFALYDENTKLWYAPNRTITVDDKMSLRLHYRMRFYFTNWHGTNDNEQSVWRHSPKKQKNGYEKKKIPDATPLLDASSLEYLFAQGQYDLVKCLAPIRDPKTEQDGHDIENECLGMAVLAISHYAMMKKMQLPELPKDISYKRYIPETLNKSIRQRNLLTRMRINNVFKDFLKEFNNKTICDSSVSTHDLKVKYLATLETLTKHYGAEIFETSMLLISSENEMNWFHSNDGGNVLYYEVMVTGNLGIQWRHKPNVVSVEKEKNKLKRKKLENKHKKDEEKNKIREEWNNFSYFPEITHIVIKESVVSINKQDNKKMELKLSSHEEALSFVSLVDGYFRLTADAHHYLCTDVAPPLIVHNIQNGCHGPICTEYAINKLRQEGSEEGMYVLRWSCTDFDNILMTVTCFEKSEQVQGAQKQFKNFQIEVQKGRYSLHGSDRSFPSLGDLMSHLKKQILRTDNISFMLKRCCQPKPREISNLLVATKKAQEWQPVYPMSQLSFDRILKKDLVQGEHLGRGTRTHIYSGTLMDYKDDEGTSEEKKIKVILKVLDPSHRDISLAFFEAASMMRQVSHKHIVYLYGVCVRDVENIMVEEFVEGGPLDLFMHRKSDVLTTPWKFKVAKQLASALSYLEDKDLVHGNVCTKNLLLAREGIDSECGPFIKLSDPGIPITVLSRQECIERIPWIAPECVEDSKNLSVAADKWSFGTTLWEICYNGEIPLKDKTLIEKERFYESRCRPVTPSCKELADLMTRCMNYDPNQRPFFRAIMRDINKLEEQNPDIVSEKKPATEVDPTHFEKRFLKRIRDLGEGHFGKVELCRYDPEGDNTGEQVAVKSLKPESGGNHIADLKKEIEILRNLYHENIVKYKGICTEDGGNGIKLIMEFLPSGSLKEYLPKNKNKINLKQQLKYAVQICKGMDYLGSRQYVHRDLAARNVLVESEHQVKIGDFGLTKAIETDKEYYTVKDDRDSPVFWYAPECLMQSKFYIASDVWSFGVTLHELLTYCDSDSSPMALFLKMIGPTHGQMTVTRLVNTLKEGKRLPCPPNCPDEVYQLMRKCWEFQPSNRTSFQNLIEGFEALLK

IC50 (JAK1) [nM] | IC50 (JAK2) [nM] | IC50 (TYK2) [nM] | GI50 [1] [nM] | GI50 (Ba/F3-TEL-TYK2 cells) [nM] | GI50 (Ba/F3-TEL-JAK2 cells) [nM] | microsomal CLint at 1 μM [2, 6] [µL/min/mg] | half-life at 1 μM [2, 7] [h] | microsomal CLint at 1 μM [2, 8] [µL/min/mg] | half-life at 1 μM [2, 9] [h] | microsomal CLint at 1 μM [2, 10] [µL/min/mg] | half-life at 1 μM [2, 11] [h] | IC50 (TYK2-JH2 domain) [nM] | fraction unbound at 5 h [3] | IC50 (pSTAT1 [4]) [nM] | IC50 (pSTAT1 [5]) [nM] | Structure (SMILES)
> 5000 | > 5000 | > 5000 | 54.5 | 4030 | 3730 | 27.1 | 2.13 | 88.3 | 0.654 | 137 | 0.422 |  |  |  |  | CCn1ccc2c(c(Nc3cc(Nc4ccc(F)cn4)ncc3C(=O)NC)cn2C)c1=O [Example 10, 4-((5-Ethyl-1-methyl-4-oxo-4,5-dihydro-1H-pyrrolo[3,2-c]pyridin-3-yl)amino)-6-((5-fluoropyridin-2-yl)amino)-N-methylnicotinamide]
> 5000 | > 5000 | > 5000 | 330 | > 20000 | > 20000 | 6.43 | 3.59 | 23.6 | 0.98 | 101 | 0.228 |  |  |  |  | CNC(=O)c1cnc(NC(=O)C2CC2)cc1Nc1cn(C)c2c(F)cn(C)c(=O)c12 [Example 14, 6-(Cyclopropanecarboxamido)-4-((7-fluoro-1,5-dimethyl-4-oxo-4,5-dihydro-1H-pyrrolo[3,2-c]pyridin-3-yl)amino)-N-methylnicotinamide]
> 5000 | > 5000 | > 5000 | 34.9 | > 20000 | 4960 | 71.2 | 0.812 | 4.46 | 12.9 | 43.6 | 1.32 | 0.098 | 0.038 |  |  | [2H]C([2H])([2H])NC(=O)c1cnc(Nc2cccc(C#N)c2)nc1Nc1cccc(-c2ncn(C)n2)c1OC [Example 19, 2-(3-Cyanoanilino)-4-[2-methoxy-3-(1-methyl-1,2,4-triazol-3-yl)anilino]-N-(trideuteriomethyl)pyrimidine-5-carboxamide]
> 5000 | 173 | > 5000 | 78 | 2530 | 1180 | 101 | 0.572 | 13.3 | 4.36 | 45.7 | 1.26 |  |  |  |  | [2H]C([2H])([2H])NC(=O)c1cnc(Nc2ccc(F)cc2)nc1Nc1cccc(-c2ncn(C)n2)c1OC [Example 20, 2-(4-Fluoroanilino)-4-[2-methoxy-3-(1-methyl-1,2,4-triazol-3-yl)anilino]-N-(trideuteriomethyl)pyrimidine-5-carboxamide]
> 5000 | > 5000 | > 5000 | 48.2 | > 20000 | 789 | < 18.6 | > 3.1 | 21.2 | 2.72 | 63.8 | 0.905 |  |  |  |  | CNC(=O)c1nnc2cc1Nc1cc(cc(-c3ncn(C)n3)c1OC)COCc1cccc(n1)N2 [Example 35, 10-Methoxy-N-methyl-11-(1-methyl-1H-1,2,4-triazol-3-yl)-15-oxa-2,4,5,8,21-pentaazatetracyclo[15.3.1.1^{3,7}.1^{9,13}]tricosa-1(21),3,5,7(23),9(22),10,12,17,19-nonaene-6-carboxamide]
 |  |  | 48.7 |  |  | 5.63 | 4.1 | 27.4 | 0.843 | 21.9 | 1.05 |  |  | 823 | 79.5 | [2H]C([2H])([2H])NC(=O)c1nnc2cc1Nc1cc(cc(-c3ncn(C)n3)c1OC)COCc1cc(F)cc(n1)N2 [Example 71, 19-Fluoro-10-methoxy-N-(methyl-d3)-11-(1-methyl-1H-1,2,4-triazol-3-yl)-15-oxa-2,4,5,8,21-pentaazatetracyclo[15.3.1.1^{3,7}.1^{9,13}]tricosa-1(21),3,5,7(23),9(22),10,12,17,19-nonaene-6-carboxamide]
 |  |  | 38.7 |  |  | 26.7 | 0.866 | < 11.5 | > 2 | < 11.5 | > 2 |  |  | 1580 | 113 | [2H]C([2H])([2H])NC(=O)c1cnc2cc1Nc1cc(cc(-c3ncn(C4CC4)n3)c1OC)COCc1nc(ccc1F)N2 [Example 83, 11-(1-Cyclopropyl-1H-1,2,4-triazol-3-yl)-18-fluoro-10-methoxy-N-(methyl-d3)-15-oxa-2,4,8,21-tetraazatetracyclo[15.3.1.1^{3,7}.1^{9,13}]tricosa-1(20),3,5,7(23),9(22),10,12,17(21),18-nonaene-6-carboxamide]
 |  |  | 82.7 |  |  |  |  |  |  |  |  |  |  | 376 | 43.4 | [2H]C([2H])([2H])NC(=O)c1nnc(NC(=O)C2CC2)cc1Nc1cn(C)c2ccn(CC)c(=O)c12 [Example 223, 6-(Cyclopropanecarboxamido)-4-((5-ethyl-1-methyl-4-oxo-4,5-dihydro-1H-pyrrolo[3,2-c]pyridin-3-yl)amino)-N-(methyl-d3)pyridazine-3-carboxamide]
